Several values for one entry are separate records, joined by “and”; a condition that tells them apart may be missing. Identical values can stand only once. Toxic doses and inconclusive results are not listed.
System: CD2F1 mice, L1210 leukemia ip, survival T/C
Assay: NCI In Vivo Anticancer Drug Screen. Data for tumor model L1210 Leukemia (intraperitoneal) in CD2F1 (CDF1) mice
Settings: higher = longer survival
Procedure, shortened: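 Transplantable tumor in mice; compound-treated vs vehicle-treated groups. Read-out = treated/control ratio of the measured endpoint.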

[1] = endpoint: mean survival time, dose: 25.0 mg/kg/injection, schedule: Q01DX009 (ip), vehicle: saline with Tween-80
[2] = endpoint: mean survival time, dose: 50.0 mg/kg/injection, schedule: Q01DX009 (ip), vehicle: saline with Tween-80
[3] = endpoint: mean survival time, dose: 100.0 mg/kg/injection, schedule: Q01DX001 (ip), vehicle: saline with Tween-80
[4] = endpoint: mean survival time, dose: 100.0 mg/kg/injection, schedule: Q01DX009 (ip), vehicle: saline with Tween-80
[5] = endpoint: mean survival time, dose: 200.0 mg/kg/injection, schedule: Q01DX001 (ip), vehicle: saline with Tween-80
[6] = endpoint: mean survival time, dose: 100.0 mg/kg/injection, schedule: Q04DX003 (ip), vehicle: saline with Tween-80
[7] = endpoint: mean survival time, dose: 200.0 mg/kg/injection, schedule: Q04DX003 (ip), vehicle: saline with Tween-80
[8] = endpoint: mean survival time, dose: 400.0 mg/kg/injection, schedule: Q04DX003 (ip), vehicle: saline with Tween-80
[9] = endpoint: mean survival time, dose: 100.0 mg/kg/injection, schedule: Q01DX009 (ip), vehicle: saline sonified
[10] = endpoint: mean survival time, dose: 200.0 mg/kg/injection, schedule: Q01DX009 (ip), vehicle: saline with Tween-80
[11] = endpoint: mean survival time, dose: 400.0 mg/kg/injection, schedule: Q01DX009 (ip), vehicle: saline with Tween-80
[12] = endpoint: mean survival time, dose: 400.0 mg/kg/injection, schedule: Q01DX001 (ip), vehicle: saline with Tween-80
[13] = endpoint: mean survival time, dose: 100.0 mg/kg/injection, schedule: Q04DX003 (ip), vehicle: saline
[14] = endpoint: mean survival time, dose: 200.0 mg/kg/injection, schedule: Q04DX003 (ip), vehicle: saline
[15] = endpoint: mean survival time, dose: 400.0 mg/kg/injection, schedule: Q04DX003 (ip), vehicle: saline
[16] = endpoint: mean survival time, dose: 50.0 mg/kg/injection, schedule: Q01DX009 (ip), vehicle: Klucel (hydroxypropylcellulose) (HPC)
[17] = endpoint: mean survival time, dose: 100.0 mg/kg/injection, schedule: Q01DX009 (ip), vehicle: Klucel (hydroxypropylcellulose) (HPC)
[18] = endpoint: mean survival time, dose: 200.0 mg/kg/injection, schedule: Q01DX009 (ip), vehicle: Klucel (hydroxypropylcellulose) (HPC)

CN(C)C=Nc1cccc2[nH]c3ccccc3c12
T/C (endpoint: mean survival time, dose: 12.5 mg/kg/injection, schedule: Q01DX009 (ip), vehicle: saline with Tween-80): 92 % of control
T/C [1]: 104 % of control
T/C [2]: 97 % of control
T/C [3]: 92 % of control
T/C [4]: 103 % of control
T/C [5]: 101 % of control

FC(F)(F)Cc1cccc(C(F)(F)F)c1
T/C [6]: 109 % of control
T/C [7]: 108 % of control
T/C [8]: 100 % of control

CC1=NN(c2cccc(S(=O)(=O)O)c2)C(=O)C1
T/C [9]: 88 % of control

CCCCCCOS(=O)OC(C)C(Cl)C(=O)OCC (stereo unspecified)
T/C [4]: 97 % of control
T/C [10]: 97 % of control
T/C [11]: 100 % of control

N=c1c2ccccc2nnn1Cc1ccccc1
T/C [3]: 98 % of control
T/C [5]: 96 % of control
T/C [12]: 93 % of control

c1ccc(NN=C(c2ccccc2)c2ccccc2)cc1
T/C [6]: 95 % of control
T/C [7]: 95 % of control
T/C [8]: 98 % of control

O=C(SCc1ccccc1)c1cccnc1
T/C (endpoint: mean survival time, dose: 6.25 mg/kg/injection, schedule: Q01DX009 (ip), vehicle: saline): 98 % of control
T/C (endpoint: mean survival time, dose: 12.5 mg/kg/injection, schedule: Q01DX009 (ip), vehicle: saline): 98 % of control
T/C [1]: 94 % of control
T/C (endpoint: mean survival time, dose: 25.0 mg/kg/injection, schedule: Q01DX009 (ip), vehicle: saline): 98 % of control
T/C [2]: 96 % of control
T/C [4]: 92 % of control

COc1ccc(OC)c2c1CC(C(C)=O)CC2=O (stereo unspecified)
T/C (endpoint: mean survival time, dose: 12.5 mg/kg/injection, schedule: Q01DX009 (ip), vehicle: water): 98 % of control
T/C (endpoint: mean survival time, dose: 25.0 mg/kg/injection, schedule: Q01DX009 (ip), vehicle: water): 102 % of control
T/C (endpoint: mean survival time, dose: 50.0 mg/kg/injection, schedule: Q01DX009 (ip), vehicle: water): 106 % of control
T/C (endpoint: mean survival time, dose: 100.0 mg/kg/injection, schedule: Q01DX009 (ip), vehicle: water): 100 % of control
T/C (endpoint: mean survival time, dose: 200.0 mg/kg/injection, schedule: Q01DX009 (ip), vehicle: water): 92 % of control

NC(=O)c1c[se]c(C2OC(CO)C(O)C2O)n1 (stereo unspecified)
T/C (endpoint: median survival time, dose: 12.5 mg/kg/injection, schedule: Q01DX009 (ip), vehicle: water): 174 % of control and 187 % of control
T/C (endpoint: median survival time, dose: 25.0 mg/kg/injection, schedule: Q01DX009 (ip), vehicle: water): 170 % of control and 193 % of control
T/C (endpoint: median survival time, dose: 50.0 mg/kg/injection, schedule: Q01DX009 (ip), vehicle: water): 206 % of control and 233 % of control
T/C (endpoint: median survival time, dose: 100.0 mg/kg/injection, schedule: Q01DX009 (ip), vehicle: water): 216 % of control and 233 % of control

Nc1nc2cc[nH]c2c(=O)[nH]1
T/C (endpoint: median survival time, dose: 50.0 mg/kg/injection, schedule: Q01DX005 (ip), vehicle: saline with Tween-80): 94 % of control
T/C (endpoint: median survival time, dose: 100.0 mg/kg/injection, schedule: Q01DX005 (ip), vehicle: saline with Tween-80): 97 % of control
T/C (endpoint: median survival time, dose: 200.0 mg/kg/injection, schedule: Q01DX005 (ip), vehicle: saline with Tween-80): 92 % of control

C=C(Br)CC1CCCCC1=O (stereo unspecified)
T/C [3]: 94 % of control
T/C [9]: 98 % of control
T/C [5]: 93 % of control
T/C (endpoint: mean survival time, dose: 200.0 mg/kg/injection, schedule: Q01DX009 (ip), vehicle: saline sonified): 94 % of control
T/C [12]: 95 % of control
T/C (endpoint: mean survival time, dose: 400.0 mg/kg/injection, schedule: Q01DX009 (ip), vehicle: saline sonified): 100 % of control

CC(=O)Nc1cccc(OCOc2ccc([N+](=O)[O-])cc2)c1
T/C (endpoint: mean survival time, dose: 100.0 mg/kg/injection, schedule: Q01DX001 (ip), vehicle: Klucel (hydroxypropylcellulose) (HPC)): 90 % of control
T/C (endpoint: mean survival time, dose: 200.0 mg/kg/injection, schedule: Q01DX001 (ip), vehicle: Klucel (hydroxypropylcellulose) (HPC)): 110 % of control
T/C (endpoint: mean survival time, dose: 400.0 mg/kg/injection, schedule: Q01DX001 (ip), vehicle: Klucel (hydroxypropylcellulose) (HPC)): 97 % of control

[Cl][Pt+2][Cl].[NH-]CC(O)c1ccc2oc3ccccc3c2c1.[NH-]CC(O)c1ccc2oc3ccccc3c2c1 (stereo unspecified)
T/C (endpoint: median survival time, dose: 10.0 mg/kg/injection, schedule: Q04DX003 (ip), vehicle: saline): 104 % of control
T/C (endpoint: median survival time, dose: 20.0 mg/kg/injection, schedule: Q04DX003 (ip), vehicle: saline): 108 % of control
T/C (endpoint: median survival time, dose: 40.0 mg/kg/injection, schedule: Q04DX003 (ip), vehicle: saline): 104 % of control
T/C (endpoint: median survival time, dose: 80.0 mg/kg/injection, schedule: Q04DX003 (ip), vehicle: saline with Tween-80): 109 % of control
T/C (endpoint: median survival time, dose: 80.0 mg/kg/injection, schedule: Q04DX003 (ip), vehicle: saline): 108 % of control

N#CSCN1C(=O)C=CC1=O
T/C (endpoint: mean survival time, dose: 1.25 mg/kg/injection, schedule: Q01DX009 (ip), vehicle: saline with Tween-80): 93 % of control
T/C (endpoint: mean survival time, dose: 2.5 mg/kg/injection, schedule: Q01DX009 (ip), vehicle: saline with Tween-80): 89 % of control
T/C (endpoint: mean survival time, dose: 5.0 mg/kg/injection, schedule: Q01DX009 (ip), vehicle: saline with Tween-80): 93 % of control

CC(C)(C)N[P+](C)(NC(C)(C)C)c1ccccc1
T/C (endpoint: mean survival time, dose: 3.13 mg/kg/injection, schedule: Q04DX003 (ip), vehicle: saline): 98 % of control
T/C (endpoint: mean survival time, dose: 6.25 mg/kg/injection, schedule: Q04DX003 (ip), vehicle: saline): 103 % of control
T/C (endpoint: mean survival time, dose: 12.5 mg/kg/injection, schedule: Q04DX003 (ip), vehicle: saline): 86 % of control and 95 % of control

OCC(O)C(O)C(O)C(/C=N/Nc1ccccc1)=N/Nc1ccccc1 (stereo unspecified)
T/C (endpoint: mean survival time, dose: 75.0 mg/kg/injection, schedule: Q01DX001 (ip), vehicle: saline): 95 % of control
T/C (endpoint: mean survival time, dose: 150.0 mg/kg/injection, schedule: Q01DX001 (ip), vehicle: saline): 95 % of control
T/C (endpoint: mean survival time, dose: 300.0 mg/kg/injection, schedule: Q01DX001 (ip), vehicle: saline): 95 % of control

C=CCCCCCCCCC(=O)N(CC#N)CC(C)C
T/C [4]: 104 % of control
T/C [6]: 96 % of control
T/C [10]: 96 % of control
T/C [7]: 100 % of control
T/C [8]: 94 % of control

O=C1C(=O)C(c2ccccc2)(c2ccccc2)c2cc(-c3ccccc3)c(-c3ccccc3)cc21
T/C (endpoint: mean survival time, dose: 25.0 mg/kg/injection, schedule: Q04DX003 (ip), vehicle: saline with Tween-80): 93 % of control
T/C (endpoint: mean survival time, dose: 50.0 mg/kg/injection, schedule: Q04DX003 (ip), vehicle: saline with Tween-80): 89 % of control
T/C [6]: 93 % of control

C/C=C(\C)C(C)O (stereo unspecified)
T/C (endpoint: mean survival time, dose: 50.0 mg/kg/injection, schedule: Q01DX005 (ip), vehicle: saline): 87 % of control
T/C [2]: 98 % of control
T/C (endpoint: mean survival time, dose: 50.0 mg/kg/injection, schedule: Q04DX002 (ip), vehicle: saline + alcohol): 92 % of control
T/C (endpoint: mean survival time, dose: 100.0 mg/kg/injection, schedule: Q01DX005 (ip), vehicle: saline): 102 % of control
T/C [4]: 98 % of control
T/C (endpoint: mean survival time, dose: 100.0 mg/kg/injection, schedule: Q04DX002 (ip), vehicle: saline + alcohol): 103 % of control
T/C (endpoint: mean survival time, dose: 200.0 mg/kg/injection, schedule: Q01DX005 (ip), vehicle: saline): 94 % of control
T/C [10]: 95 % of control
T/C (endpoint: mean survival time, dose: 200.0 mg/kg/injection, schedule: Q04DX002 (ip), vehicle: saline + alcohol): 101 % of control
T/C (endpoint: mean survival time, dose: 400.0 mg/kg/injection, schedule: Q01DX005 (ip), vehicle: saline): 94 % of control
T/C [11]: 102 % of control
T/C (endpoint: mean survival time, dose: 400.0 mg/kg/injection, schedule: Q04DX002 (ip), vehicle: saline + alcohol): 103 % of control

OC1OCC(Cc2ccc3c(c2)OCO3)C1Cc1ccc2c(c1)OCO2 (stereo unspecified)
T/C [13]: 89 % of control
T/C [14]: 93 % of control
T/C [15]: 89 % of control

C1CC2CNC1CN2
T/C [13]: 96 % of control
T/C [14]: 98 % of control
T/C [15]: 94 % of control

CS(=O)(=O)OCCN(CCOS(C)(=O)=O)c1ccc(C=Nc2ccc(-c3csc(COc4ccccc4)n3)cc2)cc1
T/C (endpoint: mean survival time, dose: 12.5 mg/kg/injection, schedule: Q01DX009 (ip), vehicle: Klucel (hydroxypropylcellulose) (HPC)): 119 % of control
T/C (endpoint: mean survival time, dose: 25.0 mg/kg/injection, schedule: Q01DX009 (ip), vehicle: Klucel (hydroxypropylcellulose) (HPC)): 110 % of control
T/C [16]: 112 % of control
T/C [17]: 115 % of control
T/C [18]: 120 % of control
T/C (endpoint: mean survival time, dose: 400.0 mg/kg/injection, schedule: Q01DX008 (ip), vehicle: Klucel (hydroxypropylcellulose) (HPC)): 150 % of control
T/C (endpoint: mean survival time, dose: 400.0 mg/kg/injection, schedule: Q01DX009 (ip), vehicle: Klucel (hydroxypropylcellulose) (HPC)): 106 % of control and 107 % of control

C1=C(CCc2c[nH]c3ccccc23)CCN(CCc2ccccc2)C1
T/C [16]: 103 % of control
T/C [17]: 95 % of control
T/C [18]: 122 % of control
